The text below walks through data of patent publication US5912330A, “Crystalline maltosyl glucoside, and its production and use” (Kabushiki Kaisha Hayashibara Seibutsu Kagaku Kenkyujo, priority 1994, dated 1999).

Data set [1] can be described thus: Hygroscopicity: water content and appearance at 90.1% relative humidity. Type of data set: physicochemical. The conditions noted are these: for Hygroscopicity and appearance: in words. The procedure: About 1 g powder of hydrous crystalline maltosyl glucoside, anhydrous crystalline maltosyl glucoside or amorphous crystalline maltosyl glucoside was placed in a polyethylene vessel and allowed to stand in high humidity conditions of 90.1% relative humidity, and the changes of moisture content and appearance of these powders were observed and measured at a prescribed interval. Hydrous and anhydrous crystals, which were prepared by the methods of Experiment B-1, and amorphous crystal, which was prepared by dissolving hydrous crystal substance in deionized water and dried in vacuo to obtain a test sample.

The next data set concerns mice. Kind of data set: Acute toxicity in mice upon oral administration. Conditions: for mortality: maximum administrable dose. Type of data set: in vivo. The procedure:
(§1) Hydrous and anhydrous crystalline maltosyl glucosides prepared by the method in Experiment B-1 were tested for acute toxicity in mice upon oral administration.

A short description of another data set: Solubility in water. The conditions noted are these: 25° C. water. Type of data set: physicochemical. The procedure:
(8) Solubility (as anhydride)
Up to about 163 g each hydrous and anhydrous crystals were respectively soluble in 100 ml of 25° C. water.

Data set [2] in a line: Moisture adsorption / hygroscopicity of the products of the Examples. Type of data set: physicochemical.
Data set [3] is described as follows: Acute toxicity in mice upon oral administration. It is filed as in vivo. The conditions noted are these: mouse, in vivo. The procedure:
as §1

Data set [4] is described as follows: Reducing power (DE) by Somogyi-Nelson method. It is filed as physicochemical. The conditions noted are these: dextrose equivalent. An excerpt: For purifying these newly formed saccharides, the reaction products were decolored, deionized, concentrated and subjected to column fractionation using a strongly-acidic cation exchanger in alkali-metal form ("XT-1016", Na^+ form, 4% cross-linking degree, a product of Tokyo Organic Chemical Industries, Ltd., Tokyo, Japan). More particularly, the cation exchanger was packed in 3 jacketed stainless steel columns, inner diameter of 2.0 cm, length of 1 m each, cascaded in series, which were then loaded with either reaction product in an amount of 5 v/v % to the volume of the cation exchanger and then applied with 55° C. water at an SV (space velocity) 0.13 for fractionation, and fractions containing 97% or more newly formed saccharides were collected. The obtained fractions were separately lyophilized into high-purity saccharide preparations. The yields against particular material substrates were about 9% for PI, about 65% for PII, about 82% for PIII, about 80% for PIV and about 77% for PV, and the final purities were 97.5% for PI, 98.6% for PII, 99.5% for PIII, 98.4% for PIV and 98.4% for PV.
These high-purity saccharide preparations were tested for their reducing powers with the Somogyi-Nelson method and their reducing powers were represented in terms of DE (dextrose equivalent).

Values after ≈ are worked out from the molar mass of the structure shown. A value given as a limit tells only on which side of the number the result lay.

`OC[C@H]1O[C@H](O[C@H]2O[C@H](CO)[C@@H](O[C@H]3O[C@H](CO)[C@@H](O)[C@H](O)[C@H]3O)[C@H](O)[C@H]2O)[C@H](O)[C@@H](O)[C@@H]1O` [Amorphous crystal, O-α-D-glucopyranosyl-(→4)-α-D-glucopyranosyl α-D-glucopyranoside]: the Water content in data set [1] (0 hour) stood at 0.5%; in data set [1] (2 hours), 6.3%; in data set [1] (8 hours), 17.4%; in data set [1] (24 hours), 20.0%. For the same compound, the Hygroscopicity and appearance result in data set [1] is “very hygroscopic, readily solidified, and free flowing”.

As usually defined, the LD50 is the dose expected to kill half of the subjects tested. High values mean lower toxicity, low ones greater toxicity. With `OC[C@H]1O[C@H](O[C@H]2O[C@H](CO)[C@@H](O[C@H]3O[C@H](CO)[C@@H](O)[C@H](O)[C@H]3O)[C@H](O)[C@H]2O)[C@H](O)[C@@H](O)[C@@H]1O` [Anhydrous crystal, O-α-D-glucopyranosyl-(→4)-α-D-glucopyranosyl α-D-glucopyranoside], in the data set on mice, the LD50 was no less than 50000 mg/kg. For the same compound, the mortality entry with mice is listed as “no mouse died”. In addition, the “Solubility (as anhydride)” value in the data set “Solubility in water” is recorded as “about 163 g/100 ml”. Further, the Water content in data set [1] (0 hour) worked out at 0.3%; in data set [1] (2 hours), 10.3%; in data set [1] (8 hours) it was 10.4%; in data set [1] (24 hours), 10.5%. Also, the Hygroscopicity and appearance result in data set [1] was “hygroscopic, however, had no change of appearance and retained free-flowing ability”.

On to `OC[C@H]1O[C@H](O[C@H]2O[C@H](CO)[C@@H](O[C@H]3O[C@H](CO)[C@@H](O)[C@H](O)[C@H]3O)[C@H](O)[C@H]2O)[C@H](O)[C@@H](O)[C@@H]1O` [Example A-1], for which, in data set [2] (in words, product of the Example), the hygroscopicity result is recorded as “substantially no hygroscopicity”.

In the case of `OC[C@H]1O[C@H](O[C@H]2O[C@H](CO)[C@@H](O[C@H]3O[C@H](CO)[C@@H](O)[C@H](O)[C@H]3O)[C@H](O)[C@H]2O)[C@H](O)[C@@H](O)[C@@H]1O` [Example A-5], in data set [2] (anhydrous crystal converted into hydrous crystal), the “water content after standing in a room” value is “about 10%”.

A word on the solubility: it is the concentration that dissolves in the medium under given conditions. Take `OC[C@H]1O[C@H](O[C@H]2O[C@H](CO)[C@@H](O[C@H]3O[C@H](CO)[C@@H](O)[C@H](O)[C@H]3O)[C@H](O)[C@H]2O)[C@H](O)[C@@H](O)[C@@H]1O` [Hydrous crystal, O-α-D-glucopyranosyl-(→4)-α-D-glucopyranosyl α-D-glucopyranoside]: the mortality entry in the data set on mice is on record as “no mouse died”. Moreover, the median lethal dose (LD50) in data set [3] was no less than 50000 mg/kg. The solubility in the data set “Solubility in water” (read-out: Solubility (as anhydride)) is roughly 1630 mg/mL (≈ 3230 mM). Further, the Water content in data set [1] (0 hour) is 9.9%; in data set [1] (2 hours), 10.4%; in data set [1] (8 hours), 10.5%; in data set [1] (24 hours), 10.5%. In addition, in data set [1], the Hygroscopicity and appearance result is “less hygroscopic, free flowing, and readily handleable”.

Consider `OC[C@H]1O[C@H](O[C@H]2O[C@H](CO)[C@@H](O[C@H]3O[C@H](CO)[C@@H](O)[C@H](O)[C@H]3O)[C@H](O)[C@H]2O)[C@H](O)[C@@H](O)[C@@H]1O` [PI, α-maltosyl glucoside], for which the DE in data set [4] is reported as 0.83.

Consider `OC[C@H]1O[C@H](O[C@H]2O[C@H](CO)[C@@H](O[C@H]3O[C@H](CO)[C@@H](O[C@H]4O[C@H](CO)[C@@H](O)[C@H](O)[C@H]4O)[C@H](O)[C@H]3O)[C@H](O)[C@H]2O)[C@H](O)[C@@H](O)[C@@H]1O` [PII, α-maltotriosyl glucoside], for which the DE in data set [4] was 0.35.

As to `OC[C@H]1O[C@H](O[C@H]2O[C@H](CO)[C@@H](O[C@H]3O[C@H](CO)[C@@H](O[C@H]4O[C@H](CO)[C@@H](O[C@H]5O[C@H](CO)[C@@H](O)[C@H](O)[C@H]5O)[C@H](O)[C@H]4O)[C@H](O)[C@H]3O)[C@H](O)[C@H]2O)[C@H](O)[C@@H](O)[C@@H]1O` [PIII, α-maltotetraosyl glucoside], in data set [4], the DE was found to be 0.10.

In the case of `OC[C@H]1O[C@H](O[C@H]2O[C@H](CO)[C@@H](O[C@H]3O[C@H](CO)[C@@H](O[C@H]4O[C@H](CO)[C@@H](O[C@H]5O[C@H](CO)[C@@H](O[C@H]6O[C@H](CO)[C@@H](O)[C@H](O)[C@H]6O)[C@H](O)[C@H]5O)[C@H](O)[C@H]4O)[C@H](O)[C@H]3O)[C@H](O)[C@H]2O)[C@H](O)[C@@H](O)[C@@H]1O` [PIV, α-maltopentaosyl glucoside], in data set [4], the DE was determined as 0.27.

Consider `OC[C@H]1O[C@H](O[C@H]2O[C@H](CO)[C@@H](O[C@H]3O[C@H](CO)[C@@H](O[C@H]4O[C@H](CO)[C@@H](O[C@H]5O[C@H](CO)[C@@H](O[C@H]6O[C@H](CO)[C@@H](O[C@H]7O[C@H](CO)[C@@H](O)[C@H](O)[C@H]7O)[C@H](O)[C@H]6O)[C@H](O)[C@H]5O)[C@H](O)[C@H]4O)[C@H](O)[C@H]3O)[C@H](O)[C@H]2O)[C@H](O)[C@@H](O)[C@@H]1O` [PV, α-maltohexaosyl glucoside], for which the DE in data set [4] is 0.23.
